# Measured values taken from publication PMC12657724, “Structures of a lipin/Pah phosphatidic acid phosphatase in distinct catalytic states reveal a signature motif for substrate recognition” (The Journal of Biological Chemistry, 2025).
# Molecular target: T1, Tt Pah2 (WT, residues 1-321) (Tetrahymena thermophila, UniProt I7MFJ3)
# T1 construct: gene TTHERM_00215970; residues 1-321, codon-optimised, N-terminal His-tag (pET28) kept, E. coli BL21(DE3) RIPL
# T1 sequence (I7MFJ3 1-321): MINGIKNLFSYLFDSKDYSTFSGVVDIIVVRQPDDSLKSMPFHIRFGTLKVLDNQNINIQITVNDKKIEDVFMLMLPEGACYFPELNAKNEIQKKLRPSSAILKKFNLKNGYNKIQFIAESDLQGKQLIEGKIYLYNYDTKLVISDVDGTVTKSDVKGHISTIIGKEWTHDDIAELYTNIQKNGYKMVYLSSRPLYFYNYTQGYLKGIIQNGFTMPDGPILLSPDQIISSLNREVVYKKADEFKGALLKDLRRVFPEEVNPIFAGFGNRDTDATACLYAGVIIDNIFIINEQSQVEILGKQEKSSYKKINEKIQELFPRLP
# Assay: absorbance at […] nm (p-nitrophenol release)
# Assay type: biochemical
# Details: Mg2+, pH 8, ambient temperature, 56 μM enzyme; very slow turnover
structure (smiles),measurement,value
O=[N+]([O-])c1ccc(OP(=O)(O)O)cc1 [pNPP],absorbance at 405 nm (p-nitrophenol release),"we were able to observe detectable pNPP hydrolysis, albeit at a low rate"
